{
  "source": "paper PMC11855827",
  "about": "“High-Throughput Screening of Five Compound Libraries for Anthelmintic Activity and Toxicity Leads to the Discovery of Two Flavonoid Compounds” (International Journal of Molecular Sciences, 2025)",
  "tested_on": "C. elegans",
  "conditions": "Table S2, C. elegans SS assay, 110 μM, averages of 4 data points",
  "data": [
    {"molecule": "O=C(O[C@@H]1Cc2c(O)cc(O)cc2O[C@@H]1c1cc(=O)c(O)c2c(O)c(O)cc([C@H]3Oc4cc(O)cc(O)c4C[C@H]3O)c2c1)c1cc(O)c(O)c(O)c1", "note": "[Theaflavin‐3‐gallate]", "values": [
      {"measurement": "Percentage of motility inhibition 0 h", "value": 8, "unit": "%"},
      {"measurement": "Percentage of motility inhibition 24 h", "value": 22, "unit": "%"}
    ]},
    {"molecule": "O=c1cccc2n1C[C@H]1C[C@@H]2CN2CCCC[C@@H]12", "note": "[Thermopsine]", "values": [
      {"measurement": "Percentage of motility inhibition 0 h", "value": 0, "unit": "%"},
      {"measurement": "Percentage of motility inhibition 24 h", "value": 2, "unit": "%"}
    ]},
    {"molecule": "Cc1ncc(C[n+]2csc(CCO)c2C)c(N)n1.Cl.[Cl-]", "note": "[Thiamine (hydrochloride)]", "values": [
      {"measurement": "Percentage of motility inhibition 0 h", "value": 2, "unit": "%"},
      {"measurement": "Percentage of motility inhibition 24 h", "value": 13, "unit": "%"}
    ]},
    {"molecule": "Cc1ncc(C[n+]2csc(CCO)c2C)c(N)n1.O=[N+]([O-])[O-]", "note": "[Thiamine nitrate]", "values": [
      {"measurement": "Percentage of motility inhibition 0 h", "value": 12, "unit": "%"},
      {"measurement": "Percentage of motility inhibition 24 h", "value": 1, "unit": "%"}
    ]},
    {"molecule": "C=C[C@]1(C)C[C@@H](OC(=O)CSCCN(CC)CC)[C@]2(C)[C@H](C)CC[C@]3(CCC(=O)[C@H]32)[C@@H](C)[C@@H]1O.O=C(O)/C=C/C(=O)O", "note": "[Tiamulin (fumarate)]", "values": [
      {"measurement": "Percentage of motility inhibition 0 h", "value": 9, "unit": "%"},
      {"measurement": "Percentage of motility inhibition 24 h", "value": 9, "unit": "%"}
    ]},
    {"molecule": "C/C=C(\\C)C(=O)OC1C[C@H]2CC[C@@H](C1)N2C", "note": "(some centres unmarked) [Tigloidin]", "values": [
      {"measurement": "Percentage of motility inhibition 0 h", "value": 0, "unit": "%"},
      {"measurement": "Percentage of motility inhibition 24 h", "value": 0, "unit": "%"}
    ]},
    {"molecule": "COc1ccc(-c2cc(=O)c3c(O)cc(O[C@@H]4O[C@H](CO)[C@@H](O)[C@H](O)[C@H]4O)cc3o2)cc1", "note": "[Tilianin]", "values": [
      {"measurement": "Percentage of motility inhibition 0 h", "value": 13, "unit": "%"},
      {"measurement": "Percentage of motility inhibition 24 h", "value": 3, "unit": "%"}
    ]},
    {"molecule": "CC[C@H]1OC(=O)C[C@@H](O)[C@H](C)[C@@H](O[C@@H]2O[C@H](C)[C@@H](O)[C@H](N(C)C)[C@H]2O)[C@@H](CCN2C[C@H](C)C[C@H](C)C2)C[C@@H](C)C(=O)/C=C/C(C)=C/[C@@H]1CO[C@@H]1O[C@H](C)[C@@H](O)[C@@H](OC)[C@H]1OC.O=P(O)(O)O", "note": "[Tilmicosin (phosphate)]", "values": [
      {"measurement": "Percentage of motility inhibition 0 h", "value": 6, "unit": "%"},
      {"measurement": "Percentage of motility inhibition 24 h", "value": 10, "unit": "%"}
    ]},
    {"molecule": "CC(C)=CCC[C@H](C)[C@@H]1CC[C@]2(C)C3=C(CC[C@@]12C)[C@@]1(C)CC[C@H](O)C(C)(C)[C@@H]1CC3", "note": "[Tirucallol]", "values": [
      {"measurement": "Percentage of motility inhibition 0 h", "value": 12, "unit": "%"},
      {"measurement": "Percentage of motility inhibition 24 h", "value": 39, "unit": "%"}
    ]},
    {"molecule": "Cl.c1ccc(CC2=NCCN2)cc1", "note": "[Tolazoline (hydrochloride)]", "values": [
      {"measurement": "Percentage of motility inhibition 0 h", "value": 21, "unit": "%"},
      {"measurement": "Percentage of motility inhibition 24 h", "value": 0, "unit": "%"}
    ]},
    {"molecule": "Cc1cc(-n2c(=O)[nH]c(=O)n(C)c2=O)ccc1Oc1ccc(S(=O)(=O)C(F)(F)F)cc1", "note": "[Toltrazuril (sulfone)]", "values": [
      {"measurement": "Percentage of motility inhibition 0 h", "value": 38, "unit": "%"},
      {"measurement": "Percentage of motility inhibition 24 h", "value": 12, "unit": "%"}
    ]},
    {"molecule": "CC[C@@]1(O)C(=O)OCc2c1cc1n(c2=O)Cc2cc3c(CN(C)C)c(O)ccc3nc2-1.Cl", "note": "[Topotecan (Hydrochloride)]", "values": [
      {"measurement": "Percentage of motility inhibition 0 h", "value": 5, "unit": "%"},
      {"measurement": "Percentage of motility inhibition 24 h", "value": 3, "unit": "%"}
    ]},
    {"molecule": "CC[C@@]1(O)C(=O)OCc2c1cc1n(c2=O)Cc2cc3c(CN(C)C)c(O)ccc3nc2-1.Cl", "note": "[Topotecan (hydrochloride)]", "values": [
      {"measurement": "Percentage of motility inhibition 0 h", "value": 19, "unit": "%"},
      {"measurement": "Percentage of motility inhibition 24 h", "value": 6, "unit": "%"}
    ]},
    {"molecule": "O=c1cc(-c2ccccc2)oc2cc(O)cc(O[C@@H]3O[C@H](CO)[C@@H](O)[C@H](O)[C@H]3O)c12", "note": "[Toringin]", "values": [
      {"measurement": "Percentage of motility inhibition 0 h", "value": 0, "unit": "%"},
      {"measurement": "Percentage of motility inhibition 24 h", "value": 2, "unit": "%"}
    ]},
    {"molecule": "C[C@@H]1CC[C@]2(C(=O)O)CC[C@]3(C)C(=CC[C@@H]4[C@@]5(C)C[C@@H](O)[C@H](O)C(C)(C)[C@@H]5CC[C@]43C)[C@@H]2[C@]1(C)O", "note": "[Tormentic acid]", "values": [
      {"measurement": "Percentage of motility inhibition 0 h", "value": 3, "unit": "%"},
      {"measurement": "Percentage of motility inhibition 24 h", "value": 5, "unit": "%"}
    ]},
    {"molecule": "NC1CCN(c2nc3c(cc2F)c(=O)c(C(=O)O)cn3-c2ccc(F)cc2F)C1", "note": "(centres unmarked) [Tosufloxacin (tosylate hydrate)]", "values": [
      {"measurement": "Percentage of motility inhibition 0 h", "value": 44, "unit": "%"},
      {"measurement": "Percentage of motility inhibition 24 h", "value": 36, "unit": "%"}
    ]}
  ]
}
